Measured values published in US20230375576A1, “METHODS FOR THE TREATMENT OF FAMILIAL HETEROZYGOUS AND HOMOZYGOUS HYPERCHOLESTEROLEMIA WITH CYCLODEXTRINS” (Beren Therapeutics P.B.C., priority 2021, published 2023).
Entries after “also recorded” stand apart in the source; their conditions may differ.

Key:
[1] = Cholesterol crystal dissolution capacity in plasma of HoFH patients (D6-labeled cholesterol in filtrate, GC-MS); conditions: human plasma from HoFH patients; D6-labeled cholesterol crystals added; compared to control group; FIG. 1A
Procedure: D6-labeled cholesterol crystals were added to human plasma collected from homozygous familial hypercholesterolemia (HoFH) patients treated with HPBCD (2-hydroxypropyl-beta-cyclodextrin). The reaction mixtures were filtered to remove crystals and the filtrate was assayed for the presence of D6-labeled cholesterol using gas chromatography-mass spectroscopy (GC-MS). Cholesterol measured in the filtrate indicated the ability of HPBCD (2-hydroxypropyl-beta-cyclodextrin) to dissolve cholesterol crystals.

ABCA1 = experiment: mRNA expression of ABCA1 in whole blood from HoFH patients; assay type: cell-based, human; conditions: 1.2 mM HPBCD, 6 hours, normalized to saline control, FIG. 1B
Procedure: This example aims to investigate the effects of HPBCD (2-hydroxypropyl-beta-cyclodextrin) on cholesterol efflux capacity in HoFH patients. HPBCD was added to whole blood obtained from HoFH patients at concentration of 1.2 mM. Untreated samples were used as control. The mixtures were incubated for 6 hours. Total mRNA was isolated and mRNA expression levels were measured. Data is shown as the level of gene expression normalized to saline control.

Ldlr−/− mice = experiment: Effect on liver weight in Ldlr−/− mouse model; assay type: in vivo; conditions: Ldlr−/− mice on Western diet; 2 g/kg subcutaneously after five weeks; livers weighed up to 4 weeks post-HPBCD; versus untreated mice; FIG. 3
Text: To evaluate the effect of HPBCD (2-hydroxypropyl-beta-cyclodextrin) on liver weight, experiments using Ldlr−/− mice were designed as described in FIGS. 2A and 2B. The mice were fed normal chow diet (NC) or high-fat (42%), high-cholesterol (1.2) diet Western diet (WD) as described in Table 1 and Table 2. After five weeks, the mice were subcutaneously injected with 2 g/kg […]. The livers were excised and weighed after five weeks (Group 1, 2, 6), six weeks (Group 3), seven weeks (Group 4), and nine weeks (Group 5), respectively. [table] [table]

CC(O)COC[C@H]1O[C@@H]2O[C@H]3[C@H](O)[C@@H](O)[C@@H](O[C@H]4[C@H](O)[C@@H](O)[C@@H](O[C@H]5[C@H](O)[C@@H](O)[C@@H](O[C@H]6[C@H](O)[C@@H](O)[C@@H](O[C@H]7[C@H](O)[C@@H](O)[C@@H](O[C@H]8[C@H](O)[C@@H](O)[C@@H](O[C@H]1[C@H](O)[C@H]2O)O[C@@H]8COCC(C)O)O[C@@H]7COCC(C)O)O[C@@H]6COCC(C)O)O[C@@H]5COCC(C)O)O[C@@H]4COCC(C)O)O[C@@H]3COCC(C)O (stereo partly drawn) [HPBCD, 2-hydroxypropyl-beta-cyclodextrin]
cholesterol crystal dissolution [1]: significantly increased | mRNA expression level of ABCA1 (ABCA1): significant induction | liver weight (Ldlr−/− mice): inhibits increase of liver weight; also recorded: did not show any further increase in liver weight
